Consider one substance from publication PMC4950319, “Kinetic and structural characterization of amyloid‐β peptide hydrolysis by human angiotensin‐1‐converting enzyme” (The Febs Journal, 2016).

The test system of one assay is CC‐sACE. In words: Interdomain cooperativity of two C‐domains. Type of assay: biochemical, human. As to conditions: catalytic ability per active site versus individual domains. The procedure:
(§1) An alternative fluorogenic peptide, Abz‐FRHDSG‐(NT) (BIOPEP™ South Africa) was assayed, with 100 μL enzyme and 100 μL substrate (at a final enzyme concentration within 10% hydrolysis of total substrate; see Table 3) as above, in 96‐well plates. The samples were read at the 5 min time point on a Cary Eclipse spectrofluorimeter (Varian Inc.) at λex = 320 nm and λem = 420 nm. Kinetic constants, inner filter effect and standard curves were calculated as above.

The target in assay [1] is T1, Cdom (soluble form of the C‐domain of sACE) (Homo sapiens, UniProt P12821).
T1 construct: lacks the transmembrane region and unique 36 amino acid N terminus (and is therefore identical to the sACE C‐domain); made in house; host or cells: CHO cells
T1 sequence (P12821 643-1222 limits assumed): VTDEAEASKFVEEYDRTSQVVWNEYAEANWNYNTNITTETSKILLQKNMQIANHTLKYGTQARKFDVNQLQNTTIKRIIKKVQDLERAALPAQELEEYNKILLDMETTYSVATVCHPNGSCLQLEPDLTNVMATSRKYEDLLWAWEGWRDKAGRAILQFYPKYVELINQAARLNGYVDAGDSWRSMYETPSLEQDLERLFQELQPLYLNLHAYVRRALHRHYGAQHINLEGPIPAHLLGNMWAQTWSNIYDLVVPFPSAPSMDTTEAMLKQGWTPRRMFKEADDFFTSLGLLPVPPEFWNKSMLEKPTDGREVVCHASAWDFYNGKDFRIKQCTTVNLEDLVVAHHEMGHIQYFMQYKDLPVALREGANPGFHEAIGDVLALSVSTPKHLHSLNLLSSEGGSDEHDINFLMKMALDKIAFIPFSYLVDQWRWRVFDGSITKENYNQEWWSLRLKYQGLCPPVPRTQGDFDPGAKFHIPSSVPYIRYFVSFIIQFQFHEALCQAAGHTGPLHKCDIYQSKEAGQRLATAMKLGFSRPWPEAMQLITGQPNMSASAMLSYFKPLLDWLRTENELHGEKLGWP
In words: Aβ(4–10)Y hydrolysis by Cdom, fluorogenic assay. It counts as biochemical. As to conditions: fluorescence λex 320 nm, λem 420 nm, Hepes pH 7.5 buffer as for Aβ(4–10)Q, 5 min time point, enzyme 0.835 pmol, n = 3.
Description: Fluorogenic substrates designed around the established N‐terminal Asp7‐Ser8 cleavage site of the full‐length Aβ(1–42) were used to develop a higher throughput assay. There are two variations of the short fluorogenic peptides: Aβ(4–10)Q (Abz‐FRHDSG(Q)‐EDDnp) which has an N‐terminal Abz donor and a C‐terminal EDDnp quencher group attached to an additional Gln residue. The second peptide, Aβ(4–10)Y (Abz‐FRHDSG‐(NT)) has a different quencher molecule, NT, which substitutes for the naturally occurring Tyr residue.
as §1
Statistical analysis of the data was determined by Student's t test. Differences with P < 0.05 were considered statistically significant. Fractional error was calculated for the k cat/K m ratio with the following equation: ΔZ=ZΔa/a^2+Δb/b^2 where Z represents the mean k cat/K m and ΔZ represents the fractional error. The Δa represents the SEM of the mean k cat (a). Similarly, Δb represents the SEM of the mean K m (b).

Entries after “also recorded” stand apart in the source; their conditions may differ.

Chain of CC‐sACE (P12821 643-1222 limits assumed): as above

Turning to “Abz‐FRHDSG‐(NT) [Aβ(4–10)Y, fluorogenic Aβ(4–10) peptide with NT quencher substituting for Tyr]”, in the assay with CC‐sACE, the “cooperativity between the two C‐domains of CC‐sACE” value was “no cooperativity; also recorded: an additive effect between the two C‐domains”. In addition, in assay [1] (mean ± SEM), the K m was found to be 27.23 ± 9.52 µM, the V max came out at 4.45 ± 0.63 and the k cat came to 5.33 ± 0.76 s⁻¹. Also, the “k cat/K m” value in assay [1] (mean ± fractional error of the ratio) is reported as 2.30 ± 0.87 M^−1·s^−1 × 10^5.
